Measured values from patent US4824855A, “1,4-dihydropyridine derivatives” (Sanwa Kagaku Kenkyusho Co., Ltd., priority 1985, dated 1989).
Entries after “also recorded” stand apart in the source; their conditions may differ. Read-outs that look alike come from different tables or passages of the source.

Columns and labels:
[1] = test system: spontaneously hypertensive male rats; experiment: Blood pressure depressing action (systolic pressure); type: in vivo; details: 3.0 mg/kg oral
Source text: The testing or control compound was orally administered to the indicated number (N) of spontaneously hypertensive male rats (15 or more weeks old).

diastolic blood pressure = experiment: Effect of compounds on diastolic blood pressure in anesthetized dogs; type: in vivo, mongrel dogs; details: 1 μg/kg, i.v.
Procedure: (§1) An experiment was carried out by anesthetizing adult male and female mongrel dogs (weight; 10-20 kg) with Nembutal (30 mg/kg i.p.) and artificially respiring (20 ml/kg/stroke, 20 strokes/min) the animals.
(§2) Right vertebral and femoral arteries were exposed and each probe of electro-magnetic flow meter was fitted therein to measure vertebral and femoral arterial blood flow. A cannula was inserted into descending aorta from left femoral artery in order to measure blood pressure by pressure transducer connected to amplifier. Each of test compounds dissolved in 50% ethanol solution (1 μg/kg, i.v.) was administered from the cannula into cephlic vein.

[2] = test system: spiral strip of New Zealand white rabbit aorta; experiment: Ca antagonistic effect (Magnus method, Ca-induced contraction after K depolarization); type: cell-based
Procedure: Ca antagonistic effect was examined on a spiral strip of New Zealand white rabbit aorta with the Magnus method. The response of preparations was recorded isometically on a recorder. […] The data given in following Table 1 are presented as inhibitory % to concentration without the compound.

[3] = test system: femoral arterial blood flow; experiment: Effect of compounds on femoral arterial blood flow in anesthetized dogs; type: in vivo, mongrel dogs; details: 1 μg/kg, i.v.
Procedure: as §1, §2

[4] = related arts; cited from earlier work
[5] = Acute toxicity (oral, Litchfield-Wilcoxon method); details: mouse, in vivo, dd mice, observation for 72 hours
Procedure: Male and female dd mice were used (weight: 18-20 g). Each of compounds to be tested was dissolved in 1% Nikkol and administered directly into stomach by forced oral administration and with use of a metal sonde. LD50 of the compounds were calculated by Litchfield-Wilcoxon method, after observation for 72 hours.

[6] = test system: vertebral arterial blood flow; experiment: Effect of compounds on vertebral arterial blood flow in anesthetized dogs; type: in vivo, mongrel dogs; details: 1 μg/kg, i.v.
Procedure: as §1, §2

left atrium = experiment: Negative inotropic effect on electrically driven left atrium; type: cell-based, New Zealand white rabbit; details: Oryctolagus cuniculus; for inhibition at 100 µM: Concentration of the compound 10^-4 mol; for inhibition at 10 µM: Concentration of the compound 10^-5 mol; for IC50: read-out: ID50 (× 10^-4)
Procedure: New Zealand white rabbit was killed by bleeding from the carotid artery and the left atrium was quickly removed. […] The response of preparations was recorded isometically on a recorder. The initial tension applied to the preparation was adjusted to 1 g.

[7] = test system: vertebral arterial blood flow; experiment: Vertebral and femoral arterial blood flow increasing action (ED50); type: in vivo; details: Canis lupus familiaris, iv; amount required to increase the vertebral arterial blood flow by 50%, anesthetized dogs
Procedure: The bloodflow increasing action of the compounds was measured on anesthetized dogs, in a manner similar to that of Pharmaceutical Test Example 3, to obtain the results shown in Table 6 below:
ED50 in the Table indicates the amount of the compound required to increase the vertebral arterial blood flow by 50%.

[8] = compound 10^-7 mol, Concentration of Ca ion 2.5 mM
[9] = compound 10^-7 mol, Concentration of Ca ion 5.0 mM
[10] = compound 10^-8 mol, Concentration of Ca ion 2.5 mM
[11] = compound 10^-8 mol, Concentration of Ca ion 5.0 mM
[12] = negative inotropic effect, compound concentrations in the table in mol

SMILES | Systolic pressure (change from pre-value) ([1]; 1 hr) [mm Hg] | Systolic pressure (change from pre-value) ([1]; 2 hr) [mm Hg] | Systolic pressure (change from pre-value) ([1]; 4 hr) [mm Hg] | Systolic pressure (change from pre-value) ([1]; 6 hr) [mm Hg] | Systolic pressure (change from pre-value) ([1]; 24 hr) [mm Hg] | Change (%) DBP (diastolic blood pressure) [%] | Inhibitory (%) [2, 8] [%] | Inhibitory (%) [2, 9] [%] | Inhibitory (%) [2, 10] [%] | Inhibitory (%) [2, 11] [%] | Change (%) FABF [3] [%] | effect on cerebral blood flow [4] | LD50 at 72 h [5] [mg/kg] | Change (%) VABF [6] [%] | inhibition at 100 µM (left atrium; read-out: Change (%)) [%] | inhibition at 10 µM (left atrium; read-out: Change (%)) [%] | IC50 (left atrium; [12]) [µM] | also measured
COC(=O)C1=C(C)NC(C)=C(C(=O)OCCN(C)Cc2ccccc2)C1c1cccc([N+](=O)[O-])c1 (centres unmarked) [Nicardipine, 1,4-dihydro-2,6-dimethyl-4-(3-nitrophenyl)-pyridine-3,5-dicarboxylic acid 3-2-(N-benzyl-N-methylamino)ethyl 5-methyl ester] | -10.0 ± 2.28 | -5.7 ± 1.61 | -3.0 ± 2.01 | -1.0 ± 1.50 | -4.2 ± 1.88 | -10 ± 1 | 90.9 ± 12.06 | 83.2 ± 15.93 | 26.5 ± 18.40 | 16.3 ± 21.28 | 14 ± 5 | high cerebral blood flow increasing action | 305 | 32 ± 7 | 25.6 | 13.5 | 34 | inhibition at 1 µM (left atrium; Concentration of the compound 10^-6 mol, read-out: Change (%)): 3.4%; ED50 [7]: 0.0042 mg/kg
CC1=C(C(=O)OCCN(C)Cc2ccc(Cl)cc2)C(c2cccc([N+](=O)[O-])c2)C(C(=O)OCC2CC2)=C(C)N1 (centres unmarked) [Example 3, 3-[2-[N-(4-chlorobenzyl)-N-methylamino]ethyl] 5-cyclopropylmethyl 1,4-dihydro-2,6-dimethyl-4-(3-nitrophenyl)pyridine-3,5-dicarboxylate] | – | – | – | – | – | -8 ± 1 | – | – | – | – | 23 ± 8 | – | – | 56 ± 12 | – | – | – | –
COC(=O)C1=C(C)NC(C)=C(C(=O)OC)C1c1ccccc1[N+](=O)[O-] [Nifedipine, dimethyl ester of 1,4-dihydro-2,6-dimethyl-4-(2-nitropheny)pyridine-3,5-dicarboxylic acid] | -19.3 ± 4.41 | -10.6 ± 3.14 | -4.3 ± 2.70 | -0.1 ± 1.56 | -1.1 ± 1.06 | – | > 100 | > 100 | 63.5 ± 7.33 | 62.3 ± 7.91 | – | tendency of causing a relative decrease on cerebral blood flow | – | – | 19 | 9.5 | – | pharmaceutical activities [4]: coronary vasodilating action, blood pressure depressing action; also recorded: powerful depressing action; IC50 (left atrium): 120 µM
COc1ccc(CN(C)CCOC(=O)C2=C(C)NC(C)=C(C(=O)OCC3CC3)C2c2cccc([N+](=O)[O-])c2)cc1 (centres unmarked) [Example 4, 3-cyclopropylmethyl 5-[2-[N-(4-methoxybenzyl)-N-methylamino]ethyl] 1,4-dihydro-2,6-dimethyl-4-(3-nitrophenyl)pyridine-3,5-dicarboxylate] | – | – | – | – | – | -6 ± 1 | – | – | – | – | 19 ± 6 | – | – | 33 ± 5 | – | – | – | –
CC1=C(C(=O)OCCN(C)Cc2ccccc2)C(c2cccc([N+](=O)[O-])c2)C(C(=O)OCC2CC2)=C(C)N1 (centres unmarked) [Example 1, 3-cyclopropylmethyl 5-[2-(N-benzyl-N-methylamino)ethyl] 1,4-dihydro-2,6-dimethyl-4-(3-nitrophenyl)pyridine-3,5-dicarboxylate] | – | – | – | – | – | -9 ± 1 | 94.7 ± 3.72 | > 100 | 76.1 ± 6.62 | 81.3 ± 5.46 | 25 ± 8 | – | 211 | 51 ± 13 | 15.7 | 7.4 | 320 | –
